The test system of one data set is dHL-60 cells. Nature of the data set: DCFDA ROS assay after wash and recovery (affinity assay). The format is cell-based, human. Particulars: 2 hr treatment, recovery 4 hr or 2 hr. How it is done:
(A) Apoptosis analysis by FACS of HL-60 cells treated with compound or vehicle control for 2 hours prior to 7-AAD and Annexin V staining. (B) HL-60 cells from A were harvested and lysates were immunoblotted for levels of pPAK, and actin was used as a control for loading. (C) F-actin reorganization in freshly isolated fMLP-stimulated primary murine neutrophils was analyzed. […] Cells were exposed to a 10 μM dose of Phox-I1, Phox-I2, and Analog 13, and 200 nM nocodazole. (D) The effect of Phox-I on NOX4 mediated ROS production was tested in primary murine neutrophils transfected with a NOX4 expressing plasmid. 10 μM Phox-I1 was applied to the cells for 30 min prior to ROS assay by luminol chemiluminescence in the presence of HRP. The fMLP-stimulated ROS activity in the presence or absence of 10 uM Phox-I1 was measured in parallel. (E) The antioxidant abilities of these lead compounds were tested by prestimulating dHL-60 cells with fMLP for 30 minutes prior to treatment with Phox-I1 or Phox-I2. Levels of superoxide were analyzed by DCFDA assay and FACS. NAC, apocyanin, DPI, and NSC23766 treated cells served as controls. (F) For affinity assay, DMSO-differentiated HL-60 cells were treated with standard effective dose of indicated compound for 2 hours, washed, and allowed to recover in normal media for 4 hours or 2 hours prior to fMLP stimulation and DCFDA ROS production assay by FACS analysis. (G) For stability assay, DMSO-differentiated HL-60 cells were treated with 20 μM dose of compound for the indicated time period prior to fMLP stimulation and DCFDA ROS production assay by FACS analysis.
Next, a stability experiment was performed to determine the duration of effectiveness of the compound in suppressing neutrophils. To analyze the relative affinities of these compounds for the p67^phox target in cells, DCFDA ROS production assays were performed in dHL-60 cells treated with compound for 2 hr followed by wash and recovery for 4 hr or 2 hr in normal media prior to ROS production analysis.

A further data set has as its target T1, xanthine oxidase (Bos taurus, UniProt P80457).
T1 construct: purchased Sigma Aldrich
Nature of the data set: xanthine/xanthine oxidase assay. The format is biochemical. Conditions: 10 μM, 30 min at room temperature. How it is done:
Chemiluminescence was measured using GloMax®-96 Microplate Luminometer (Promega) (Tarpey et al., (2004) Am J Physiol Regul Integr Comp Physiol 286: R431-R444, hereby incorporated by reference in its entirety). The generation of […] by the xanthine/xanthine oxidase was performed in PBS supplemented with xanthine oxidase (0.004 U), HRP (0.005 U·mL^−1) and L012, following the protocol described in Wind et al., (2010) Br J Pharmacol. 161, 885-898, hereby incorporated by reference in its entirety. The reaction was started by the addition of xanthine (0.5 mM).
To test if the inhibitors are specific for the NOX2 enzyme, a xanthine/xanthine oxidase assay was performed. Specifically, vehicle, NAC (10 mM), […] or Phox-I2 (10 μM) was added to the assay, and incubated for 30 min at room temperature. The results were calculated by taking superoxide production in the absence of inhibitors as 100 and value obtained with NAC, Pghox-I1 or Phox-I2 was expressed as relative %. The data shown in FIG. 6 represent those from three separate experiments.

Data set [1] concerns undifferentiated HL-60 cells. Nature of the data set: apoptosis analysis by FACS (Annexin V / 7-AAD). The format is cell-based, human. Conditions: 20 or 100 μM. How it is done:
(§1) Cells (5×10^5) were harvested and processed for Annexin V/7AAD staining according to manufacturer's protocol (Becton Dickinson). Flow cytometry data were acquired on a FACS Canto bench-top flow cytometer (Becton Dickinson) and the cell cycle distributions were determined by […] using Flo-Jo software (Bosco et al (2010) Blood 115, 3320-3328, hereby incorporated by reference in its entirety). For ROS production assay, primary murine neutrophils or dHL60 cells were incubated with compound for 2 hours prior to addition of H2-DCFDA according to manufacturer's instructions (Molecular Probes). Cells were then stimulated with 10 μM fMLP (Sigma), 1 mM CaCl2, and 1.5 mM MgCl2 for 15 minutes prior to wash and FACS analysis for mean fluorescence intensity. Non-fMLP stimulated control values were subtracted from all samples before normalization to fMLP-stimulated, vehicle control treated sample in order to display percent ROS inhibition.
In order to determine potency and cytotoxicity of Phox-I1 and Phox-I2, the levels of apoptosis were assessed in undifferentiated HL-60 cells treated with 20 or 100 μM Phox-I1, Phox-I2, or NSC23766 by FACS analysis for Annexin V (FIG. 4A).
(A flow cytometer gives signals particle by particle.)

Data set [2] deals with fMLP-stimulated differentiated HL-60 cells. In words: H2-DCFDA FACS ROS production assay in fMLP-stimulated differentiated HL-60 cells. The format is cell-based, human. Particulars: for IC50: dHL-60 cells, DCFDA assay; for inhibition of ROS production, Phox-I1 analogs: FIG. 3B. How it is done: HL-60 cells were propagated in RPMI 1640 medium containing 10% heat inactivated fetal bovine serum, 2 mM L-glutamine, 100 U/mL penicillin/streptomycin at 37° C. in air containing 5% CO2. For differentiation, HL-60 cells were cultured in 1.3% dimethyl sulfoxide (DMSO) as previously described (Servant, G., et al. (1999) Mol Biol Cell 10, 1163-1178, hereby incorporated by reference in its entirety). Primary murine neutrophils were isolated from C57Bl/6 mouse bone marrow according to a published protocol (Filippi et al., (2004) Nat Immunol 5, 744-751, hereby incorporated by reference in its entirety) using a discontinuous Percoll (Pharmacia) gradient and were utilized immediately in experiments. Human neutrophils were obtained from fresh blood (IRB #2010-1855, Cincinnati Children's Hospital medical Center) following a well established protocol using density gradient separation from whole blood (Oh et al. (2008) J Vis Exp., 17, pii: 745, hereby incorporated by reference in its entirety).
as §1
To validate the hits from preliminary screening in cells, several cellular functional assays were performed using different cell types to measure the effect of compounds on inhibition of ROS production. ROS levels were first analyzed by fluorescence-activated cell sorting (FACS) in HL-60 pre-incubated with compounds for 2 hr prior to stimulation of ROS production. The p67^phox inhibitor, Phox-I1, was tested against NAC (a ROS scavenger), DPI (a broad range inhibitor of NADPH oxidase), and NSC23766 (a Rac-GTP inhibitor; FIG. 2A). […] H2O2 added to the cells was included as a positive control for ROS measurement. Second, to test the capacity of Phox-I1 to inhibit ROS production in a primary cell context, primary murine neutrophils isolated from mouse bone marrow were treated with increasing concentrations of Phox-I1 and the efficacy of inhibition of fMLP-stimulated ROS production was analyzed. DPI treatment was included as a positive control for inhibition of ROS production (FIG. 2B). […] Next, to ascertain the optimal effective dose for ROS inhibition in cells, a dose titration series of Phox-I1 was administered to dHL-60 cells (FIG. 2C).

T1 sequence (P80457 2-1332 limits assumed): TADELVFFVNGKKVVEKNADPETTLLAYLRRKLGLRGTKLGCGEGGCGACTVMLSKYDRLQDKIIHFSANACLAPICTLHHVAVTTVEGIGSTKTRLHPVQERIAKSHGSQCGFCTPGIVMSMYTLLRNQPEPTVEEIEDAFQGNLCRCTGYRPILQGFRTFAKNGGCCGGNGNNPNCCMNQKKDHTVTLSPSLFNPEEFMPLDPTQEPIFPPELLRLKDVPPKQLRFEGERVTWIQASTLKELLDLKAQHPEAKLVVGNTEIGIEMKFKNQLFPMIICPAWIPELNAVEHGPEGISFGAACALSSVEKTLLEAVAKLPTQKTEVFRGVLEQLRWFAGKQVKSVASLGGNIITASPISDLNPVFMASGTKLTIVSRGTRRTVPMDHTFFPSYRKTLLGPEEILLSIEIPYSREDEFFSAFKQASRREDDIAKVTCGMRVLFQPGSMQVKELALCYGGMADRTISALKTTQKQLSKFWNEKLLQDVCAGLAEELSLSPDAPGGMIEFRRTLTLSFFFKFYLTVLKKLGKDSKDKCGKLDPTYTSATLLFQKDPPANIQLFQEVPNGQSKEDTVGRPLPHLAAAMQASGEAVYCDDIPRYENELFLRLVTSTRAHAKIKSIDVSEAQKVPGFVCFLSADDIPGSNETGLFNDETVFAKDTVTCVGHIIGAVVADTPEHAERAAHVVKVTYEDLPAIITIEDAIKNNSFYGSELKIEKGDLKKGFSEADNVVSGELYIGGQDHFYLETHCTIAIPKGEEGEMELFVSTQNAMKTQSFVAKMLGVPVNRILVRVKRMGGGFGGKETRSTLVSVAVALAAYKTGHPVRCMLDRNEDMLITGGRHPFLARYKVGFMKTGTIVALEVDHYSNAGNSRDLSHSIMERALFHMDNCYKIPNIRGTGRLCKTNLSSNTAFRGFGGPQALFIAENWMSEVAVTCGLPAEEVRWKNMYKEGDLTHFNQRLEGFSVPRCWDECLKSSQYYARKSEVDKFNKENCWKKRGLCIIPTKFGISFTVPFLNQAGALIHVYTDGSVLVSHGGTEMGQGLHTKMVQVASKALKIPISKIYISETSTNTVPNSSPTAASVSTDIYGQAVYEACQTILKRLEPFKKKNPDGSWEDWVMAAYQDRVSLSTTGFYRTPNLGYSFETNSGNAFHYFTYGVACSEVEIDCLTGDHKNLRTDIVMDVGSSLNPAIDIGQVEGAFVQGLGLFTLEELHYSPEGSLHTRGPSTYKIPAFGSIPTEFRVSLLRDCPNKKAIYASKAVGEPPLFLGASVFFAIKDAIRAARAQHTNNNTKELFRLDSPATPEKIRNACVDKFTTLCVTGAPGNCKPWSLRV

A word on the IC50: it is the concentration that inhibits the measured activity by half. Lower therefore signals higher potency. For the compound `O=[N+]([O-])c1cccc(C2Nc3ccc([N+](=O)[O-])cc3C3C=CCC32)c1` (stereo not shown) [Phox-I2], the “ROS inhibition after wash” value with dHL-60 cells was “did not display effective ROS inhibition”. The “xanthine oxidase-mediated ROS production” value on xanthine oxidase is “does not affect”. Also, in data set [1], the “cell apoptosis (Annexin V)” value was “no detectable effect on cell apoptosis”. The same compound returned an IC50 in data set [2] of approximately 1000 nM. Besides, the “inhibition of ROS production, Phox-I1 analogs” value in data set [2] (pre-incubated 2 hr, listed as Analog 16) is recorded as “improved ROS inhibition over Phox1”; in data set [2] (pre-incubated 2 hr, listed as analog 16), “greatest inhibition of ROS production”.

Take `COc1ccc2c(c1)C1C=C(c3ccccc3)NN1C(c1cccc([N+](=O)[O-])c1)O2` (stereo not shown) [Phox-I1]: the “ROS inhibition after wash” value in the data set on dHL-60 cells was “still evident”. The “xanthine oxidase-mediated ROS production” value at xanthine oxidase is listed as “does not affect”. Besides, the “cell apoptosis (Annexin V)” value in data set [1] is given as “no detectable effect on cell apoptosis”. In addition, the “ROS production compared to standard ROS inhibitors” value in data set [2] (20 μM, pre-incubated 2 hr) was “able to attenuate ROS production”. The IC50 in data set [2] (Homo sapiens, HL-60) is approximately 3000 nM. For the same compound, in data set [2] (dose titration in dHL-60 cells), the “dose of optimal cellular response” value turned out to be 10 µM. The “inhibition of ROS production, Phox-I1 analogs” value in data set [2] (pre-incubated 2 hr) is on record as “greatest inhibition of ROS production”.

The values above are taken from patent US9567347B2, “Use of small molecule inhibitors targeting the interaction between RAC GTPase and p67(phox)” (CHILDREN'S HOSPITAL MEDICAL CENTER, priority 2012, dated 2017).
